Patent US20150132382A1, “COMPOSITIONS AND METHODS OF TREATMENT COMPRISING FOSFOMYCIN DISODIUM” (Forest Laboratories Holdings Ltd., priority 2013, published 2015)

Experiments:
[1] = Microenvironmental pH of fosfomycin sodium, with and without organic acid; type: physicochemical
Description: Fosfomycin may be granulated by using methods such as slugging, low or high shear granulation or fluid bed granulation. For example, for high shear granulation (e.g., Diosna Mixer Granulator), fosfomycin can be blended with a water soluble filler (e.g., lactose, sucrose, mannitol and sorbitol) and granulated with binder (sugars like sucrose and liquid glucose; natural binders like starch and pre-gelatinized starch; synthetic/semisynthetic polymers like HPMC, povidone, PEG, polyvinyl alcohol) solution. The granules are dried, milled and blended with an organic acid (e.g., citric acid, tartaric acid, succinic acid, malic acid, fumaric acid), anti-adherent (e.g., talc, fumed silica) and lubricant (sodium stearyl fumarate). The organic acid serves as a neutralizer counteracting microenvironmental high alkalinity resulting from fosfomycin sodium. Fosfomycin sodium microenvironmental pH of about 9 would be reduced to pH 6-8 due to the presence of an organic acid. The final blend is compressed into tablets (1.4-1.7 g/tablet) followed by film coating (e.g., Opadry) in a conventional coating pan. These formulations can provide≧80% fosfomycin dissolution in less than 30 minutes at pH 1.2.

[2] = Borsa et al 1988; cited from earlier work
[3] = compared with the other fosfomycin salt (Bergan 1990); cited from earlier work
[4] = cited from earlier work

SMILES	microenvironmental pH [1]	gastric irritation [2]	bioavailability [3]	solubility in water [4]
C[C@@H]1O[C@@H]1P(=O)(O)O [Fosfomycin disodium, fosfomycin disodium]	about 9	known to cause gastric irritation	–	–
C[C@@H]1O[C@@H]1P(=O)([O-])[O-].[Ca+2] [fosfomycin calcium]	–	–	lower bioavailability	slightly soluble in water
